In this assay the test system is oreillette gauche du cobaye isolée et stimulée électriquement. Kind of assay: In vitro inotropic (cardiotonic) activity: contraction force of isolated, electrically stimulated guinea pig left atrium. Type of assay: cell-based. The note with it: for minimal effective concentration: read-out: Cardiotonique (concentration minimale efficace en ug/ml produisant une réponse significative). The text has this:
Les composés (I) selon l'invention ont été trouvés peu toxiques et n'ont pas ou peu d'effet sur le système nerveux central. Par contre, ils se sont montrés actifs dans les test in vitro d'activité inotropique (cardiotonique). Le Tableau (IV) ci-dessous donne les résultats de ces essais.
Theophylline 15 Amrinone ^2) 100 Milrinone ^2) 0,5 IBMX^3) 0,5 • 1) Mesure de la force de contraction de l'oreillette gauche du cobaye isolée et stimulée électriquement, selon Erjavek, F. and Adamic, S., Arch. Int. Pharmacodyn. 155: 251, 1965. Une réponse est considérée comme significative lorsque la force de contraction de base est augmentée de plus de 40 %. • 2) Médicament cardiotonique selon l'état de la technique • 3) 1-méthyl-3-isobutylxanthine

Where [1] appears, read: significant response = basal contraction force increased by more than 40 %, isolated left atrium of guinea pig, electrically stimulated.

Where two headings read alike, the source gives them in different places.

Take `CC(C)Cn1c(=O)n(CCC(C)O)c(=O)c2[nH]cnc21` (stereo not shown) [Xanthine No. 17, 1-(3-Hydroxybutyl)-3-isobutylxanthine]: the “Cardiotonique (concentration minimale efficace en ug/ml produisant une réponse significative)” value (significant response = basal contraction force increased by more than 40 %, isolated left atrium of guinea pig, electrically stimulated, listed as 3) was determined as 2 µg/mL.

As for `CC(C)Cn1c(=O)n(CCC(C)O)c(=O)c2[nH]cnc21` (stereo not shown) [compound 17], the minimal effective concentration under setting [1] amounted to 1.3 µg/mL.

As to `CCCn1c(=O)n(CCCO)c(=O)c2[nH]c(CC)nc21` [compound 9], the minimal effective concentration under setting [1] was found to be 2 µg/mL.

Regarding `CCn1c(=O)n(CCC(C)O)c(=O)c2[nH]cnc21` (stereo not shown) [compound 14], under setting [1], the minimal effective concentration was found to be 0.8 µg/mL.

With `CC(C)Cn1c(=O)n(C)c(=O)c2[nH]cnc21` [IBMX, 1-méthyl-3-isobutylxanthine, reference compound], the minimal effective concentration under setting [1] came out at 0.5 µg/mL.

In the case of `CCCn1c(=O)n(CCCCCO)c(=O)c2[nH]cnc21` [compound 26], under setting [1], the minimal effective concentration came to 0.2 µg/mL.

With `CC(O)CCCn1c(=O)c2[nH]cnc2n(C)c1=O` (stereo not shown) [compound 23], the minimal effective concentration under setting [1] was determined as 33.3 µg/mL.

Take `CCCn1c(=O)n(CCCC(C)O)c(=O)c2[nH]cnc21` (stereo not shown) [compound 24]: under setting [1], the minimal effective concentration worked out at 0.7 µg/mL.

As for `CCn1c(=O)n(CCC(C)O)c(=O)c2[nH]c(C)nc21` (stereo not shown) [compound 15], the minimal effective concentration under setting [1] is 0.6 µg/mL.

With `CCCCn1c(=O)n(CCCO)c(=O)c2[nH]cnc21` [compound 10], under setting [1], the minimal effective concentration is 0.4 µg/mL.

With `CCn1c(=O)n(CCCCO)c(=O)c2[nH]cnc21` [compound 18], the minimal effective concentration under setting [1] is 3.3 µg/mL.

Turning to `CCCn1c(=O)n(CCCO)c(=O)c2[nH]cnc21` [compound 7], the minimal effective concentration under setting [1] is 1.3 µg/mL.

As for `CCCn1c(=O)n(CCCCCO)c(=O)c2[nH]c(C)nc21` [compound 27], the “Cardiotonique (concentration minimale efficace en ug/ml produisant une réponse significative)” value under setting [1] is reported as 0,3 ug/ml.

For `Cn1c(=O)n(CCCCCO)c(=O)c2[nH]cnc21` [compound 25], the minimal effective concentration under setting [1] came to 6.7 µg/mL.

Turning to `CCCn1c(=O)n(CCC(C)O)c(=O)c2[nH]cnc21` (stereo not shown) [compound 16], under setting [1], the minimal effective concentration is 0.1 µg/mL.

As to `Cc1[nH]c(=O)c(C#N)cc1-c1ccncc1` [Milrinone, reference compound], the minimal effective concentration turned out to be 0.5 µg/mL.

Take `CCCn1c(=O)n(CC(C)O)c(=O)c2[nH]c(C)nc21` (stereo not shown) [compound 5]: the minimal effective concentration under setting [1] was determined as 0.6 µg/mL.

Turning to `CCCCn1c(=O)n(CCCCO)c(=O)c2[nH]cnc21` [Xanthine No. 21, 1-(4-Hydroxybutyl)-3-butylxanthine], the “Cardiotonique (concentration minimale efficace en ug/ml produisant une réponse significative)” value (significant response = basal contraction force increased by more than 40 %, isolated left atrium of guinea pig, electrically stimulated, listed as 2) is recorded as 2,5 ug/ml.

For the molecule `CCCn1c(=O)n(CCCO)c(=O)c2[nH]c(C)nc21` [compound 8], under setting [1], the minimal effective concentration was 4.2 µg/mL.

Turning to `CCCCn1c(=O)n(CC(C)O)c(=O)c2[nH]cnc21` (stereo not shown) [Xanthine No. 6, 1-(2-Hydroxypropyl)-3-butylxanthine], the minimal effective concentration under setting [1] stood at 3.3 µg/mL.

`Cn1c(=O)c2[nH]cnc2n(C)c1=O` [Theophylline, reference compound]: the minimal effective concentration under setting [1] came to 15 µg/mL.

Regarding `CCCn1c(=O)n(CCCCO)c(=O)c2[nH]cnc21` [compound 19], the minimal effective concentration under setting [1] was 0.4 µg/mL.

On to `Cc1nc2c([nH]1)c(=O)n(CCCCO)c(=O)n2CC(C)C` [compound 22], for which the minimal effective concentration under setting [1] amounted to 25 µg/mL.

With `Cc1nc2c([nH]1)c(=O)n(CCCO)c(=O)n2CC(C)C` [compound 12], the minimal effective concentration under setting [1] was 0.5 µg/mL.

Turning to `CC(C)Cn1c(=O)n(CCCO)c(=O)c2[nH]cnc21` [compound 11], the minimal effective concentration under setting [1] amounted to 0.7 µg/mL.

As for `CCCCn1c(=O)n(CC(C)O)c(=O)c2[nH]cnc21` (stereo not shown) [compound 6], under setting [1], the “Cardiotonique (concentration minimale efficace en ug/ml produisant une réponse significative)” value is listed as 4,2 ug/ml.

Take `CCCn1c(=O)n(CCCCO)c(=O)c2[nH]c(C)nc21` [compound 20]: under setting [1], the minimal effective concentration stood at 0.7 µg/mL.

Turning to `CCCCn1c(=O)n(CCCCO)c(=O)c2[nH]cnc21` [compound 21], the minimal effective concentration under setting [1] was 2 µg/mL.

With `CC(O)CCn1c(=O)c2[nH]cnc2n(C)c1=O` (stereo not shown) [compound 13], the minimal effective concentration under setting [1] turned out to be 50 µg/mL.

`Nc1cc(-c2ccncc2)c[nH]c1=O` [Amrinone, reference compound]: the minimal effective concentration under setting [1] worked out at 100 µg/mL.

Regarding `CCCn1c(=O)n(CCCCCO)c(=O)c2[nH]c(C)nc21` [Xanthine No. 27, 1-(5-Hydroxypentyl)-3-propyl-8-methylxanthine], where the note is “significant response = basal contraction force increased by more than 40 %, isolated left atrium of guinea pig, electrically stimulated, listed as 1”, the “Cardiotonique (concentration minimale efficace en ug/ml produisant une réponse significative)” value was found to be 1 µg/mL.

These data come from patent publication EP0269841A1, “1-Hydroxyalkyl xanthines, processes for their preparation and medicaments containing them” (SOCIETE DES PRODUITS NESTLE S.A., priority 1986, dated 1988).
